From patent US20220127258A1, “AROMATIC RING OR HETEROAROMATIC RING COMPOUNDS, PREPARATION METHOD THEREFOR AND MEDICAL USE THEREOF” (The National Institutes of Pharmaceutical R&D Co., Ltd., priority 2019, published 2022)

Assay: Visual inspection of solubility of test sample in extracellular fluid
Type: physicochemical
Details: 0.3 μM to 30 μM solutions in extracellular fluid pH 7.4, from DMSO stock
Procedure: Extracellular fluid: 140 mM NaCl, 3.5 mM KCl, 1 mM MgCl2, 2 mM CaCl2, 10 mM glucose, 10 mM HEPES, 1.25 mM NaH2PO4, pH=7.4 (adjusted by NaOH). The stock solution of the compound of Example 8 of the present invention (30.26 mM solution in DMSO) was successively diluted with 10 mL of extracellular fluid to obtain 0.3 μM, 1 μM, 3 μM, […], and 30 μM solutions. […] 10 mg of Cisapride was dissolved in 2066.29 μL of dimethyl sulfoxide (DMSO) to obtain a 10 mM stock solution. The Cisapride stock solution was successively diluted with dimethyl sulfoxide (DMSO) to obtain a total of 4 concentrations of 1 μM, 10 μM, 100 μM and 1 mM. Before the test, 10 μL of the diluent at each concentration was added to 10 mL of extracellular fluid to ensure that the DMSO concentration was 0.1%. The final working concentration of Cisapride was 1 nM, 10 nM, 100 nM and 1 μM.

## O=C(O)c1ccc(-c2nnc(N3[C@@H]4CC[C@H]3C[C@@H](OCc3c(-c5c(Cl)cccc5Cl)noc3C3CC3)C4)o2)cc1 [Example 8, 4-(5-((1R,3r,5S)-3-((5-cyclopropyl-3-(2,6-dichlorophenyl)isoxazol-4-yl)methoxy)-8-azabicyclo[3.2.1]octan-8-yl)-1,3,4-oxadiazol-2-yl)benzoic acid]
  solubility of the test sample, visually inspected: completely dissolved without visible precipitation
